Reference: US20090143279A1 (priority 2007, published 2009)
Read-outs that look alike come from different tables or passages of the source.

Columns and labels:
mtOXPHOS transcripts = assay type: cell-based, mouse; conditions: for mitoOX (composite Z-score): normalized score vs mock-treated (DMSO) wells
reactive oxygen species = assay type: cell-based, mouse; conditions: for ROS (composite Z-score): normalized score vs mock-treated (DMSO) wells
C2C12 myotubes = conditions: for Viability (composite Z-score): normalized score vs mock-treated (DMSO) wells
[1] = test system: cellular dehydrogenase activity; conditions: for MTT (composite Z-score): normalized score vs mock-treated (DMSO) wells
[2] = test system: mitochondrial membrane potential; assay type: cell-based, mouse; conditions: for ΔΨm (composite Z-score): normalized score vs mock-treated (DMSO) wells
cytochrome c = assay type: cell-based, mouse; conditions: for cyt c (composite Z-score): normalized score vs mock-treated (DMSO) wells
nuOXPHOS transcripts = assay type: cell-based, mouse; conditions: for nucOX (composite Z-score): normalized score vs mock-treated (DMSO) wells
OXPHOS gene expression = assay type: cell-based, mouse; conditions: for GE-HTS (composite Z-score): normalized score vs mock-treated (DMSO) wells
[3] = composite Z-score vs DMSO, Conc 20 μM
[4] = composite Z-score vs DMSO wells, Conc 20 μM
[5] = 20 μM, composite Z-score vs DMSO
[6] = 13.86 μM, composite Z-score vs DMSO

Structure (SMILES): C=CC1=C(C)/C(=C/c2[nH]c(Cc3[nH]c(/C=C4\NC(=O)C(C)=C4C=C)c(C)c3CCC(=O)O)c(CCC(=O)O)c2C)NC1=O [bilirubin]
- mitoOX (composite Z-score) (mtOXPHOS transcripts; Conc 20 μM): 0.427
- ROS (composite Z-score) (reactive oxygen species; Conc 20 μM): 0.249
- Viability (composite Z-score) (C2C12 myotubes; Conc 20 μM): −0.649
- MTT (composite Z-score) ([1]; Conc 20 μM): −1.287
- ΔΨm (composite Z-score) ([2]; Conc 20 μM): −1.837
- cyt c (composite Z-score) (cytochrome c; Conc 20 μM): 1.004
- nucOX (composite Z-score) (nuOXPHOS transcripts; Conc 20 μM): 0.250
- GE-HTS (composite Z-score) (OXPHOS gene expression; Conc 20 μM): 0.312

Structure (SMILES): COc1ccc(-c2coc3cc(O)cc(O)c3c2=O)cc1 [biochanin A]
- mitoOX (composite Z-score) (mtOXPHOS transcripts; Conc 20 μM): −0.042
- ROS (composite Z-score) (reactive oxygen species; Conc 20 μM): 0.623
- Viability (composite Z-score) (C2C12 myotubes; Conc 20 μM): 0.987
- MTT (composite Z-score) ([1]; Conc 20 μM): −0.325
- ΔΨm (composite Z-score) ([2]; Conc 20 μM): 0.033
- cyt c (composite Z-score) (cytochrome c; Conc 20 μM): −0.416
- nucOX (composite Z-score) (nuOXPHOS transcripts; Conc 20 μM): −0.459
- GE-HTS (composite Z-score) (OXPHOS gene expression; Conc 20 μM): −0.324

Structure (SMILES): OC(CCN1CCCCC1)(c1ccccc1)C1CC2C=CC1C2 (stereo not drawn) [biperiden]
- mitoOX (mtOXPHOS transcripts): −1.312
- ROS (reactive oxygen species): 2.725
- Viability (C2C12 myotubes): 0.740
- MTT [1]: −0.886
- ΔΨm [2]: −0.517
- cyt c (cytochrome c): 0.053
- nucOX (nuOXPHOS transcripts): −0.496
- GE-HTS (OXPHOS gene expression): −0.817

Structure (SMILES): CC(C)=CCC[C@](C)(O)C1CC=C(C)CC1 (stereo partly drawn) [bisabolol]
- mitoOX (mtOXPHOS transcripts; [3]): −0.690
- ROS (reactive oxygen species; [3]): 0.061
- Viability (C2C12 myotubes; [3]): 0.300
- MTT [1, 3]: 0.031
- ΔΨm [2, 3]: −0.234
- cyt c (cytochrome c; [3]): 0.738
- nucOX (nuOXPHOS transcripts; [3]): −0.983
- GE-HTS (OXPHOS gene expression; [3]): −0.963

Structure (SMILES): CCc1ccc2c(O)c3c(cc2c1C(=O)OC)C(=O)c1c(O)ccc(O)c1C3=O [bisanhydrorutilantinone]
- mitoOX (mtOXPHOS transcripts; [3]): −1.532
- ROS (reactive oxygen species; [3]): 0.236
- Viability (C2C12 myotubes; [3]): −0.493
- MTT [1, 3]: −1.755
- ΔΨm [2, 3]: −2.223
- cyt c (cytochrome c; [3]): 0.148
- nucOX (nuOXPHOS transcripts; [3]): −0.268
- GE-HTS (OXPHOS gene expression; [3]): −0.727

Structure (SMILES): Oc1c(Cl)cc(Cl)cc1Sc1cc(Cl)cc(Cl)c1O [bithionol]
- mitoOX (mtOXPHOS transcripts; [4]): −1.838
- ROS (reactive oxygen species; [4]): 1.449
- Viability (C2C12 myotubes; [4]): −2.247
- MTT [1, 4]: 0.593
- ΔΨm [2, 4]: −2.723
- cyt c (cytochrome c; [4]): −2.613
- nucOX (nuOXPHOS transcripts; [4]): −1.261
- GE-HTS (OXPHOS gene expression; [4]): −1.531

Structure (SMILES): CC(C)C[C@H]1C(=O)N2CCC[C@H]2[C@]2(O)O[C@](NC(=O)[C@@H]3C=C4c5cccc6[nH]c(Br)c(c56)C[C@H]4N(C)C3)(C(C)C)C(=O)N12 [bromocriptine]
- mitoOX (mtOXPHOS transcripts; [5]): −0.322
- ROS (reactive oxygen species; [5]): 0.176
- Viability (C2C12 myotubes; [5]): 1.142
- MTT [1, 5]: −1.667
- ΔΨm [2, 5]: 0.037
- cyt c (cytochrome c; [5]): −0.064
- nucOX (nuOXPHOS transcripts; [5]): 0.199
- GE-HTS (OXPHOS gene expression; [5]): 0.006

Structure (SMILES): Oc1c(Br)cc(Br)c2cccnc12 [broxyquinoline]
- mitoOX (mtOXPHOS transcripts; [5]): −0.157
- ROS (reactive oxygen species; [5]): −1.081
- Viability (C2C12 myotubes; [5]): −2.006
- MTT [1, 5]: −1.180
- ΔΨm [2, 5]: 1.701
- cyt c (cytochrome c; [5]): 0.410
- nucOX (nuOXPHOS transcripts; [5]): −1.095
- GE-HTS (OXPHOS gene expression; [5]): −0.830

Structure (SMILES): COc1cc2c(cc1OC)[C@@]13CCN4CC5=CCO[C@H]6CC(=O)N2[C@H]1[C@H]6[C@H]5C[C@H]43 [brucine]
- mitoOX (composite Z-score) (mtOXPHOS transcripts; Conc 20 μM): −0.887
- ROS (composite Z-score) (reactive oxygen species; Conc 20 μM): 0.930
- Viability (composite Z-score) (C2C12 myotubes; Conc 20 μM): 1.605
- MTT (composite Z-score) ([1]; Conc 20 μM): −1.270
- ΔΨm (composite Z-score) ([2]; Conc 20 μM): 0.552
- cyt c (composite Z-score) (cytochrome c; Conc 20 μM): 0.660
- nucOX (composite Z-score) (nuOXPHOS transcripts; Conc 20 μM): −1.084
- GE-HTS (composite Z-score) (OXPHOS gene expression; Conc 20 μM): −1.106

Structure (SMILES): COc1ccc(-c2cc(=O)c3c(O)cc(O[C@H]4O[C@H](CO[C@@H]5O[C@@H](C)[C@H](O)[C@@H](O)[C@H]5O)[C@@H](O)[C@H](O)[C@H]4O)cc3o2)cc1 [buddleoflavonoloside]
- mitoOX (composite Z-score) (mtOXPHOS transcripts; Conc 20 μM): 0.017
- ROS (composite Z-score) (reactive oxygen species; Conc 20 μM): 0.265
- Viability (composite Z-score) (C2C12 myotubes; Conc 20 μM): 0.169
- MTT (composite Z-score) ([1]; Conc 20 μM): 0.006
- ΔΨm (composite Z-score) ([2]; Conc 20 μM): 0.050
- cyt c (composite Z-score) (cytochrome c; Conc 20 μM): 0.736
- nucOX (composite Z-score) (nuOXPHOS transcripts; Conc 20 μM): 0.114
- GE-HTS (composite Z-score) (OXPHOS gene expression; Conc 20 μM): 0.073

Structure (SMILES): CCCCN1CCCCC1C(=O)Nc1c(C)cccc1C (stereo not drawn) [bupivacaine]
- mitoOX (mtOXPHOS transcripts; [6]): 0.002
- mitoOX (mtOXPHOS transcripts; [5]): 0.009
- ROS (reactive oxygen species; [6]): 0.545
- ROS (reactive oxygen species; [5]): 0.801
- Viability (C2C12 myotubes; [6]): −0.663
- Viability (C2C12 myotubes; [5]): −1.202
- MTT [1, 6]: −1.440
- MTT [1, 5]: −0.841
- ΔΨm [2, 6]: −0.938
- ΔΨm [2, 5]: 0.084
- cyt c (cytochrome c; [6]): −0.058
- cyt c (cytochrome c; [5]): 0.190
- nucOX (nuOXPHOS transcripts; [6]): −0.316
- nucOX (nuOXPHOS transcripts; [5]): 0.548
- GE-HTS (OXPHOS gene expression; [6]): −0.227
- GE-HTS (OXPHOS gene expression; [5]): 0.392
